Test results reported in patent US20110092544A1, “FUNGICIDAL PYRIDINES” (E.I. DU PONT DE nemours and company, priority 2008, published 2011).

Columns and labels:
Type in all cases: in vivo
[1] = test system: Puccinia recondite f. sp. tritici; assay: Test B: wheat leaf rust, preventive spray on wheat seedlings, visual disease rating
Source text: (§1) General protocol for preparing test suspensions for Tests A-H: The test compounds were first dissolved in acetone in an amount equal to 3% of the final volume and then suspended at the desired concentration (in ppm) in acetone and purified water (50/50 mix) containing 250 ppm of the surfactant Trem® 014 (polyhydric alcohol esters). The resulting test suspensions were then used in tests A-H. Spraying a 200 ppm test suspension to the point of run-off on the test plants was the equivalent of a rate of 500 g/ha.
(§2) The test suspension was sprayed to the point of run-off on wheat seedlings. The following day the seedlings were inoculated with a spore suspension of Puccinia recondite f. sp. tritici (the causal agent of wheat leaf rust) and incubated in a saturated atmosphere at 20° C. for 24 h, and then moved to a growth chamber at 20° C. for 7 days, after which time disease ratings were visually made.
(§3) Results for Tests A-H are given in Table A. In the table, a rating of 100 indicates 100% disease control and a rating of 0 indicates no disease control (relative to the controls). A dash (-) indicates no test results. All results are for compounds tested at 200 ppm except where the compound number is followed by “*” which indicates the compound was tested at 40 ppm.

Septoria nodorum = assay: Test D: wheat glume blotch, preventive spray on wheat seedlings, visual disease rating
Source text: as §1
as §2, with “Septoria nodorum” for “Puccinia recondite f. sp. tritici”, “glume blotch)” for “leaf rust)”, “48” for “24”
as §3

[2] = test system: Erysiphe graminis f. sp. tritici; assay: Test A: wheat powdery mildew, preventive spray on wheat seedlings, visual disease rating
Source text: as §1
The test suspension was sprayed to the point of run-off on wheat seedlings. The following day the seedlings were inoculated with a spore dust of Erysiphe graminis f. sp. tritici (the causal agent of wheat powdery mildew) and incubated in a growth chamber at 20° C. for 8 days, after which time disease ratings were visually made.
as §3

Septoria tritici = assay: Test C: wheat leaf blotch, preventive spray on wheat seedlings, visual disease rating
Source text: as §1
as §2, with “Septoria” for “Puccinia recondite f. sp.”, “blotch)” for “rust)”, “48” for “24”, “and” for “and then”, “19 additional” for “7”
as §3

Alternaria solani = assay: Test E: tomato early blight, preventive spray on tomato seedlings, visual disease rating
Source text: as §1
(§4) The test suspension was sprayed to the point of run-off on tomato seedlings. The following day the seedlings were inoculated with a spore suspension of Alternaria solani (the causal agent of tomato early blight) and incubated in a saturated atmosphere at 27° C. for 48 h, and then moved to a growth chamber at 20° C. for 5 days, after which time disease ratings were visually made.
as §3

Botrytis cinerea = assay: Test F: tomato botrytis, preventive spray on tomato seedlings, visual disease rating
Source text: as §1
as §4, with “Botrytis cinerea” for “Alternaria solani”, “botrytis)” for “early blight)”, “in” for “in a”, “20°” for “27°”, “24°” for “20°”, “3 additional” for “5”
as §3

[3] = 40 ppm (compound number followed by *)
[4] = 192 h, 40 ppm (compound number followed by *)
[5] = Parastagonospora nodorum, 216 h, 40 ppm (compound number followed by *)
[6] = Blumeria graminis, 192 h, 40 ppm (compound number followed by *)
[7] = Zymoseptoria tritici, 504 h, 40 ppm (compound number followed by *)
[8] = Alternaria solani, 168 h, 40 ppm (compound number followed by *)
[9] = Botrytis cinerea, 120 h, 40 ppm (compound number followed by *)
[10] = 200 ppm, 100 = 100% disease control, 0 = no control

SMILES | Test B rating (% disease control) [1, 3] | Test D rating (% disease control) (Septoria nodorum; [3]) | Test A rating (% disease control) [2, 3] | Test C rating (% disease control) (Septoria tritici; [3]) | Test E rating (% disease control) (Alternaria solani; [3]) | Test F rating (% disease control) (Botrytis cinerea; [3]) | Test B rating (% disease control) [1, 10] | Test D rating (% disease control) (Septoria nodorum; [10]) | Test A rating (% disease control) [2, 10] | Test C rating (% disease control) (Septoria tritici; [10]) | Test E rating (% disease control) (Alternaria solani; [10]) | Test F rating (% disease control) (Botrytis cinerea; [10]) | other results
COc1cc(OC)cc(-c2c(C(C)CO)cnc(C)c2-c2c(F)cccc2F)c1 (centres unmarked) [Compound 90] | 74% | 0% | 0% | 90% | 98% | 71% |  |  |  |  |  |  | 
COc1cc(OC)cc(-c2c(-c3ccccc3)cnc(C)c2-c2c(F)cc(F)cc2F)c1 [Compound 121, 4-(3,5-dimethoxyphenyl)-2-methyl-5-phenyl-3-(2,4,6-trifluorophenyl)pyridine] |  |  |  |  |  |  |  |  |  |  |  |  | pest or weed control at 40 ppm [1, 4]: 100%; pest or weed control at 40 ppm (Septoria nodorum; [5]): 94%; pest or weed control at 40 ppm [2, 6]: 99%; pest or weed control at 40 ppm (Septoria tritici; [7]): 99%; pest or weed control at 40 ppm (Alternaria solani; [8]): 99%; pest or weed control at 40 ppm (Botrytis cinerea; [9]): 100%
COc1cc(OC)cc(-c2c(-c3c(F)cccc3F)cnc(Cl)c2-c2c(F)cccc2F)c1 [Compound 76] | 28% | 0% | 0% | 0% | 0% | 0% |  |  |  |  |  |  | 
COc1cc(OC)cc(-c2c(-c3c(F)cccc3F)cnc(C#N)c2-c2c(F)cccc2F)c1 [Compound 81] |  |  |  |  |  |  | 96% | 0% | 78% | 93% | 98% | 46% | 
COc1cc(OC)cc(-c2c(C3CCOCC3)cnc(C)c2-c2c(F)cc(F)cc2F)c1 [Compound 79] | 100% | 95% | 97% | 93% | 100% | 91% |  |  |  |  |  |  | 
COc1cc(OC)c(Cl)c(-c2c(-c3ccccc3F)cnc(C)c2-c2ccc(F)cc2)c1 [Compound 126] | 100% | 100% | 90% | 99% | 97% | 100% |  |  |  |  |  |  | 
COc1cc(OC)cc(-c2c(Cn3ccc(C(F)(F)F)n3)cnc(C)c2-c2c(F)cc(F)cc2F)c1 [Compound 108] |  |  |  |  |  |  | 85% | 0% | 64% | 71% | 0% | 87% | 
C=C(C)c1cnc(CC)c(-c2ccccc2)c1-c1cc(OC)cc(OC)c1 [Compound 29] | 0% | 0% | 91% | 98% | 91% | 80% |  |  |  |  |  |  | 
COc1cc(OC)cc(-c2c(C(O)C(C)C)cnc(C)c2-c2c(F)cc(F)cc2F)c1 (centres unmarked) [Compound 103] |  |  |  |  |  |  | 100% | 98% | 100% | 95% | 100% | 99% | 
COc1cc(OC)cc(-c2c(-c3ccc(F)cc3)cnc(C)c2-c2ccc(F)cc2F)c1 [Compound 95] |  |  |  |  |  |  | 99% | 0% | 93% | 96% | 73% | 87% | 
C=C(C)c1cnc(C)c(-c2ccc(OC)cc2)c1-c1cc(OC)cc(OC)c1 [Compound 64] |  |  |  |  |  |  | 99% | 90% | 85% | 95% | 100% | 99% | 
COc1cc(OC)cc(-c2c(C(C)(C)O)cnc(C)c2-c2c(F)cc(OC)cc2F)c1 [Compound 72, 5-(2,6-difluoro-4-methoxyphenyl)-4-(3,5-dimethoxyphenyl)-α,α,6-trimethyl-3-pyridinemethanol] |  |  |  |  |  |  |  |  |  |  |  |  | pest or weed control at 200 ppm ([1]; 192 h, 200 ppm, 100 = 100% disease control, 0 = no control): 100%; pest or weed control at 200 ppm (Septoria nodorum; Parastagonospora nodorum, 216 h, 200 ppm, 100 = 100% disease control, 0 = no control): 100%; pest or weed control at 200 ppm ([2]; Blumeria graminis, 192 h, 200 ppm, 100 = 100% disease control, 0 = no control): 100%; pest or weed control at 200 ppm (Septoria tritici; Zymoseptoria tritici, 504 h, 200 ppm, 100 = 100% disease control, 0 = no control): 95%; pest or weed control at 200 ppm (Alternaria solani; Alternaria solani, 168 h, 200 ppm, 100 = 100% disease control, 0 = no control): 100%; pest or weed control at 200 ppm (Botrytis cinerea; Botrytis cinerea, 120 h, 200 ppm, 100 = 100% disease control, 0 = no control): 99%
COc1cc(OC)cc(-c2c(-c3ccccc3)cnc(C)c2-c2c(F)cccc2F)c1 [Compound 87] | 96% | 0% | 98% | 95% | 0% | 72% |  |  |  |  |  |  | 
COc1cc(OC)cc(-c2c(Br)cnc(C)c2-c2c(F)cc(F)cc2F)c1 [Compound 122, 5-bromo-4-(3,5-dimethoxyphenyl)-2-methyl-3-(2,4,6-trifluorophenyl)pyridine] |  |  |  |  |  |  |  |  |  |  |  |  | pest or weed control at 40 ppm [1, 4]: 99%; pest or weed control at 40 ppm (Septoria nodorum; [5]): 0%; pest or weed control at 40 ppm [2, 6]: 98%; pest or weed control at 40 ppm (Septoria tritici; [7]): 99%; pest or weed control at 40 ppm (Alternaria solani; [8]): 0%; pest or weed control at 40 ppm (Botrytis cinerea; [9]): 100%
CCOC(=O)c1cnc(C)c(-c2c(F)ccc(F)c2F)c1-c1cc(OC)cc(OC)c1 [Compound 66] |  |  |  |  |  |  | 98% | 0% | 99% | 98% | 99% | 95% | 
COc1cc(OC)cc(-c2c(C(C)=O)cnc(C)c2-c2c(F)ccc(OC)c2F)c1 [Compound 105] |  |  |  |  |  |  | 99% | 0% | 100% | 93% | 0% | 98% | 
CCOC(=O)c1cnc(C)c(-c2ccc(OC)cc2)c1-c1cc(OC)cc(OC)c1 [Compound 60] |  |  |  |  |  |  | 59% | 0% | 59% | 68% | 0% | 99% | 
Cc1cnc(C)c(-c2c(F)cccc2F)c1-c1ccc(Cl)cc1 [Compound 144] | 0% | 0% | 0% | 0% | 0% | 45% |  |  |  |  |  |  | 
COc1cc(OC)cc(-c2c(C=O)cnc(C)c2-c2c(F)cc(F)cc2F)c1 [Compound 112] | 80% | 0% | 96% | 93% | 9% | 96% |  |  |  |  |  |  | 
C=C(C)c1cnc(C)c(-c2c(F)ccc(F)c2F)c1-c1cc(OC)cc(OC)c1 [Compound 77] | 99% | 0% | 100% | 92% | 99% | 84% |  |  |  |  |  |  | 
COc1cc(OC)cc(-c2c(C(C)C)cnc(C)c2-c2c(F)ccc(F)c2F)c1 [Compound 78] | 99% | 0% | 100% | 92% | 96% |  |  |  |  |  |  |  | 
